Results as given in ChEMBL document CHEMBL4811309, “Design, synthesis and antiproliferative activity of novel 2,4-diamino-5-methyleneaminopyrimidine derivatives as potential anticancer agents” (Bioorg Med Chem Lett, 2021).

Assays:
Format in all cases: functional, cell-based
[1] = tested on: HCT-116; assay: Antiproliferative activity against human HCT-116 cells assessed as reduction in cell viability by MTT assay
[2] = tested on: HT-29; assay: Antiproliferative activity against human HT-29 cells assessed as reduction in cell viability by MTT assay
[3] = tested on: MCF7; assay: Antiproliferative activity against human MCF7 cells assessed as reduction in cell viability by MTT assay
[4] = tested on: HeLa; assay: Antiproliferative activity against human HeLa cells assessed as reduction in cell viability by MTT assay

Row | Structure (SMILES) | IC50 [1] [µM] | IC50 [2] [µM] | IC50 [3] [µM] | IC50 [4] [µM]
1 | CC(C)Nc1nc(Nc2ccc(N3CCN(C)CC3)cc2)ncc1/N=C/c1ccc(C(F)(F)F)cc1 | 42.2 | > 100 | > 100 | > 100
2 | CCOC(=O)/C=N/c1cnc(Nc2ccc(S(N)(=O)=O)cc2)nc1NC1CC1 | > 100 | > 100 | > 100 | > 100
3 | CN1CCN(c2ccc(Nc3ncc(/N=C/c4ccccc4)c(NC4CCCC4)n3)cc2)CC1 | 35.2 | 28.6 | > 100 | > 100
4 | CC(C)Nc1nc(Nc2ccc(N3CCOCC3)cc2)ncc1/N=C/c1ccccc1 | > 100 | > 100 | > 100 | > 100
5 | CCOC(=O)/C=N/c1cnc(Nc2ccc(S(N)(=O)=O)cc2)nc1NC1CCCC1 | 9.64 | 23.6 | 42.2 | 20.7
6 | O=c1[nH]cc(F)c(=O)[nH]1 [FLUOROURACIL] | – | 16.1 | 18.1 | 42.7
7 | FC(F)(F)c1ccc(/C=N/c2cnc(Nc3ccc(N4CCOCC4)cc3)nc2NC2CCCC2)cc1 | 97.2 | > 100 | > 100 | > 100
8 | CC(C)Nc1nc(Nc2ccc(S(N)(=O)=O)cc2)ncc1/N=C/c1ccc(C(F)(F)F)cc1 | > 100 | > 100 | > 100 | > 100
9 | NS(=O)(=O)c1ccc(Nc2ncc(/N=C/c3cccs3)c(NC3CCCC3)n2)cc1 | 13.3 | 9.95 | 23 | 10.9
10 | C(=N\c1cnc(Nc2ccc(N3CCOCC3)cc2)nc1NC1CCCC1)/c1ccccc1 | > 100 | 67.6 | > 100 | > 100
11 | CC(C)Nc1nc(Nc2ccc(N3CCN(C)CC3)cc2)ncc1/N=C/c1ccccc1 | > 100 | 12.1 | > 100 | > 100
12 | CCOC(=O)/C=N/c1cnc(Nc2ccc(S(N)(=O)=O)cc2)nc1NC(C)C | 49.1 | > 100 | 58.8 | 83.3
13 | C(=N\c1cnc(Nc2ccc(N3CCOCC3)cc2)nc1NC1CCCC1)/c1cccs1 | > 100 | 20.8 | > 100 | > 100
